# Results reported in ChEMBL document CHEMBL4033756, “Identification of Better Pharmacokinetic Benzothiazinone Derivatives as New Antitubercular Agents” (ACS Med Chem Lett, 2017).
# Experiments:
# [1] = tested on: Mycobacterium tuberculosis; assay: Antitubercular activity against multidrug-resistant Mycobacterium tuberculosis 14231 after 7 days by microplate alamar blue assay; format: functional; settings: Mycobacterium tuberculosis, 14231, 168 h
# [2] = tested on: Mycobacterium tuberculosis; assay: Antitubercular activity against multidrug-resistant Mycobacterium tuberculosis 12525 after 7 days by microplate alamar blue assay; format: functional; settings: Mycobacterium tuberculosis, 12525, 168 h
SMILES,MIC90 [1] [µM],MIC90 [2] [µM]
O=c1nc(N2CCC3(CCN(Cc4ccc(F)cc4)C3)CC2)sc2c([N+](=O)[O-])cc(C(F)(F)F)cc12,0.034,< 0.035
O=c1nc(N2CCC3(CCN(Cc4cccc(F)c4)CC3)CC2)sc2c([N+](=O)[O-])cc(C(F)(F)F)cc12,< 0.035,< 0.035
O=c1nc(N2CCC3(CCN(Cc4ccc(Br)cc4)CC3)CC2)sc2c([N+](=O)[O-])cc(C(F)(F)F)cc12,0.086,0.092
COc1ccc(CN2CCC3(CCN(c4nc(=O)c5cc(C(F)(F)F)cc([N+](=O)[O-])c5s4)CC3)C2)cc1,0.095,0.056
O=c1nc(N2CCC3(CCN(Cc4cc(F)cc(F)c4)CC3)CC2)sc2c([N+](=O)[O-])cc(C(F)(F)F)cc12,< 0.035,< 0.035
O=c1nc(N2CCC3(CCN(Cc4ccc(C(F)(F)F)cc4)CC3)CC2)sc2c([N+](=O)[O-])cc(C(F)(F)F)cc12,< 0.035,< 0.035
COc1ccc(CN2CC3(CCN(c4nc(=O)c5cc(C(F)(F)F)cc([N+](=O)[O-])c5s4)CC3)C2)cc1,0.123,0.119
O=c1nc(N2CCC3(CCN(Cc4ccccc4)C3)CC2)sc2c([N+](=O)[O-])cc(C(F)(F)F)cc12,< 0.035,< 0.035
CCOC(=O)CN1CCC2(CCN(c3nc(=O)c4cc(C(F)(F)F)cc([N+](=O)[O-])c4s3)CC2)C1,0.06,0.08
NNC(=O)c1ccncc1 [ISONIAZID],34.5,> 292
O=c1nc(N2CCN(CC3CCCCC3)CC2)sc2c([N+](=O)[O-])cc(C(F)(F)F)cc12 [MACOZINONE],< 0.035,< 0.035
CO[C@H]1/C=C/O[C@@]2(C)Oc3c(C)c(O)c4c(O)c(c(/C=N/N5CCN(C)CC5)c(O)c4c3C2=O)NC(=O)/C(C)=C\C=C\[C@H](C)[C@H](O)[C@@H](C)[C@@H](O)[C@@H](C)[C@H](OC(C)=O)[C@@H]1C [RIFAMPIN],> 48.6,27.2
